Reference: US7977375B2, “Antibiotic and method of production thereof” (Helmholtz-Zentrum Für Infektionsforschung GmbH, priority 2004, dated 2011)
In brackets after ≈: the same amount, converted by molar mass.

Tests used:
Burkholderia cepacia SCV = experiment: electron microscopy of cell division (FIG. 4); format: cell-based; details: 128 μg/ml, 4 hours shake culture
Description: FIG. 4 a) to c) are electron microscope photographs of Burkholderia cepacia SCV after 4 hours growth without antibiotic and d), e) and f) in the presence of 128 μg/ml 7-O-malonyl macrolactin A;
It is thought that 7-O-malonyl macrolactin A inhibits the division of bacterial cells, which interrupts the proliferation thereof.
The electron microscope photographs moreover elucidate the bacteriostatic effect of 7-O-malonyl macrolactin A against gram-negative bacteria, an example whereof is the cell division of Burkholderia cepacia. Thus, FIGS. 4a, b and c show Burkholderia cepacia SCV (clinical isolate) in a shake culture without the addition of antibiotic ingredients (control) and FIGS. 4d, e and f after 4 hours growth in a shake culture in the presence of 128 μg/ml 7-O-malonyl macrolactin A. In the control culture, white arrowheads point to the cell division planes and the transverse walls in connection therewith. In the case of the gram-negative cells treated with 7-O-malonyl macrolactin A, (FIGS. 4e and f) black arrows indicate the cell division planes and the unnatural protuberances.

[1] = test system: Burkholderia cepacia SCV 141; experiment: kinetics of growth (FIG. 1F); format: cell-based; details: B. cepacia SCV 141; 32 μg/ml
From the text: (§1) • FIG. 1A y-axis: Log CFU (Colony Forming Units) Cells/ml • x-axis: Time (HRS) • FIG. 1B y-axis: Log CFU (Colony Forming Units) Cells/ml • x-axis: Time (HRS) • FIG. 1C: y-axis: Log CFU (Colony Forming Units) Cells/ml • x-axis: Time (HRS) • FIG. 1D: y-axis: Log CFU (Colony Forming Units) Cells/ml • x-axis: Time (HRS) • FIG. 1E: y-axis: Log CFU (Colony Forming Units) Cells/ml • x-axis: Time (HRS) • FIG. 1F: y-axis: Log CFU (Colony Forming Units) Cells/ml • x-axis: Time (HRS) • FIG. 5A: y-axis: % Inhibition • x-axis Concentration μg/ml • FIG. 5B: y-axis: % Inhibition • x-axis Concentration μg/ml

[2] = test system: Candida parapsilosis DSM5784; experiment: MIC / MBC in liquid culture; format: cell-based; details: Lodderomyces parapsilosis, read-out: MIC (minimal inhibitory concentration)
[3] = test system: Staphylococcus aureus MRSA 3; experiment: kinetics of growth at sub-MIC concentrations (FIG. 1B); format: cell-based; details: 1 or 4 μg/ml
Description: (§2) Investigation of the bacteriostatic activity of 7-O-malonyl macrolactin A required testing the effects of sub-MIC concentrations. […] 24 hours after treatment, the titre of viable cells was reduced by a factor of 100 as compared to the control without 7-O-malonyl macrolactin A.
as §1

B. cepacia WT139 = experiment: MIC / MBC in liquid culture; format: cell-based, Burkholderia cepacia
From the text: (§3) 7-O-malonyl macrolactin A was not effective against some of the gram-negative bacteria tested by the inventors.

B. cepacia SCV 141 = experiment: MIC / MBC in liquid culture; format: cell-based, Burkholderia cepacia; details: Burkholderia cepacia
From the text: as §3

Candida krusei DSMZ6128 = experiment: kinetics of growth (FIG. 1E); format: cell-based; details: C. krusei; 128 μg/ml
From the text: as §1

[4] = test system: Enterococcus faecium VRAR E315; experiment: kinetics of growth at sub-MIC concentrations (FIG. 1D); format: cell-based; details: E. faecium E315; 4 or 16 μg/ml; four hours following cultivation
From the text: as §1

[5] = test system: Staphylococcus aureus (#); experiment: kinetics of growth at sub-MIC concentrations (FIG. 1A); format: cell-based; details: S. aureus #, 1 or 4 μg/ml
Description: as §2, §1

[6] = test system: Enterococcus faecalis ATCC 29212; experiment: kinetics of growth at sub-MIC concentrations (FIG. 1C); format: cell-based; details: E. faecalis ATCC 29212; 4 or 16 μg/ml; four hours following cultivation
From the text: as §1

E. faecalis ATCC 29212 = experiment: MIC / MBC in liquid culture; format: cell-based, Enterococcus faecalis
[7] = test system: MRSA 3 (methicillin-resistant S. aureus, clinical isolate); experiment: agar diffusion method, inhibition zone; format: cell-based, Staphylococcus aureus; details: Staphylococcus aureus; MRSA 3; MH agar, 18 hours at 37° C.; per disk 10 μl crude extract, 50 μg macrolactin, 78 μg erythromycin, 30 μg vancomycin, 10 μg ampicillin
Description: (§4) The agar diffusion method employing Mueller-Hinton (MH) agar (Difco Laboratories) was used to determine effectiveness against bacteria and yeasts. Sterile paper disks (Schleicher & Schüell, Germany) were seeded with 10 μl crude extract or with a solution of purified macrolactin (final compound concentration on the disk 50 μg) and then placed on the surface of MH-agar plates that had been seeded beforehand with a suspension of overnight culture of the test microorganisms at a concentration of 10^5 cells/ml.

[8] = test system: MRSA 2 (methicillin-resistant S. aureus, clinical isolate); experiment: agar diffusion method, inhibition zone; format: cell-based, Staphylococcus aureus; details: Staphylococcus aureus; MRSA 2; MH agar, 18 hours at 37° C.; per disk 10 μl crude extract, 50 μg macrolactin, 78 μg erythromycin, 30 μg vancomycin, 10 μg ampicillin
Description: as §4

[9] = test system: S. aureus # (own collection, methicillin-sensitive control strain); experiment: agar diffusion method, inhibition zone; format: cell-based, Staphylococcus aureus; details: Staphylococcus aureus; S. aureus # own collection; MH agar, 18 hours at 37° C.; per disk 10 μl crude extract, 50 μg macrolactin, 78 μg erythromycin, 30 μg vancomycin, 10 μg ampicillin
Description: as §4

S. aureus DSMZ 1104 = experiment: agar diffusion method, inhibition zone; format: cell-based, Staphylococcus aureus; details: Staphylococcus aureus, DSMZ1104; S. aureus DSMZ 1104; MH agar, 18 hours at 37° C.; per disk 10 μl crude extract, 50 μg macrolactin, 78 μg erythromycin, 30 μg vancomycin, 10 μg ampicillin
Description: as §4

CC1CCC/C=C/C=C/C(O)CC(O)C/C=C\C=C\C(OC(=O)CC(=O)O)C/C=C/C=C\C(=O)O1 (stereo not shown) [7-O-malonyl macrolactin A]
effect on cell division, electron microscope (Burkholderia cepacia SCV): anomalously sized cells were also evident
growth inhibited by a factor [1]: ≤ 10
MIC [2]: 128 mg/L (≈ 262 µM)
titre of viable cells reduced by a factor, compared to control ([3]; 24 hours after treatment): 100
effect on kinetics of growth ([3]; after 4 hours): almost completely inhibited
MBC (minimal bacteriostatic or fungistatic concentration) (B. cepacia WT139): not observed
MIC (minimal inhibitory concentration) (B. cepacia WT139): >128 mg/L
MIC (B. cepacia WT139; Burkholderia cepacia, read-out: MIC (minimal inhibitory concentration)): > 128 mg/L
MBC (B. cepacia SCV 141; SCV141, read-out: MBC (minimal bacteriostatic or fungistatic concentration)): 32 mg/L (≈ 65.5 µM)
MIC (B. cepacia SCV 141; SCV141, read-out: MIC (minimal inhibitory concentration)): 128 mg/L (≈ 262 µM)
growth inhibited by a factor (Candida krusei DSMZ6128): ≤ 10
effect on kinetics of growth [4]: almost completely inhibited
effect on kinetics of growth ([5]; far below the MIC, first 4 hours): kills off this bacterium within the first 4 hours following dosage
growth reduced by a factor ([5]; subsequent cultivation time): 10
effect on kinetics of growth [6]: inhibited the growth
MIC (minimal inhibitory concentration) (E. faecalis ATCC 29212; E. faecalis ATCC 29212): 128 mg/L (≈ 262 µM)
MBC (E. faecalis ATCC 29212; Enterococcus faecalis, ATCC29212, E. faecalis ATCC 29212, read-out: MBC (minimal bacteriostatic or fungistatic concentration)): 4 mg/L (≈ 8.19 µM)
MIC (E. faecalis ATCC 29212; Enterococcus faecalis, ATCC29212, E. faecalis ATCC 29212, read-out: MIC (minimal inhibitory concentration)): > 128 mg/L
zone of inhibition at 50 µg/disc [7]: 41 mm
zone of inhibition at 50 µg/disc [8]: 40 mm
zone of inhibition at 50 µg/disc [9]: 30 mm
zone of inhibition at 50 µg/disc (S. aureus DSMZ 1104): 26 mm
